The test system of data set [1] is TECs. The data set can be described thus: Microvessel density (CD31 immunostaining) in testes sections from busulfan-treated mice. It is filed as in vivo, mouse. The settings on record: wild-type mice, 5 weeks after busulfan vs vehicle. On the procedure:
Testes were dissected from male mice were cryoprotected overnight in 20% (wt vol^−1) sucrose then frozen in OCT (Tissue-Tek). Testis sections (10 or 30 m) were blocked (5% normal goat serum and 0.1% bovine serum albumin in 0.1% PBS-T) for 1 hour and washed in 0.1% PBS-T. Primary antibodies: anti-CD31 rat-pAb (1:50; BD science, Cat: 550274), anti-PLZF rabbit-polyclonal Ab (1:50; Santa Cruz, Cat: 22839), anti-DDX4 rabbit pAb (1:200; Abcam, Cat: 13840), anti-Sox9 rabbit pAb (1:200; Millipore, Cat: ABE579), anti-GDNF rabbit polyclonal Ab (1:50; Santa Cruz, Cat: SC328) were diluted in blocking buffer and incubated for 2 hours at RT, then incubated with either anti-mouse Alexa 594 (1:1000, Thermo Fischer, Cat: A110323) or anti-rabbit Alexa 488 (1:1000, Thermo Fischer, Cat: A32723) at RT for 30 minutes. Sections were stained with for 1 min to detect nuclei. […] Digital images were analyzed for the area and density of endothelial cell markers, germline stem cell markers and GDNF by counting 5 random 20× fields per testis section.
Mice were sacrificed 5-6 weeks after Busulfan treatment and tissues were fixed in paraformaldehyde overnight and then embedded in paraffin. […] After all cross sectional areas were counted, the field was randomly moved and all cross-sectional tubules counted in that field. This was continuing until the 10-20 tubules were counted per slide. […]

In data set [2] the test system is SSCs. The settings on record: mice, no transplantation; cited from earlier work.
The test system of data set [3] is TECs. In words: TECs proliferation and apoptosis assays. It is filed as cell-based, mouse. The following applies: TECs in culture, busulfan 800 μM vs DMSO. On the procedure: TECs Proliferation and Apoptosis Assays
5×10^3 testicular ECs per well were plated on 8-chamber slide (LabteK) coated with 0.1% gelatin. Busulfan (800 μM) or DMSO were added to each well 24 hours after seeding and cultured for 72 or 96 hours. 10 μM BrdU (BD Pharmingen™) was added to media 72 hours after busulfan treatment, then incubated for 2 hours. Samples were stained with anti-BrdU (1:50; Invitrogen), anti-γ-H2AX (1:400; Millipore) and anti-cleaved caspase 3 (1:400; Cell Signaling). BrdU^+ cells in 10 random high-powered fields were counted and statistics were analyzed using Graph Pad Prism. Each condition was performed in triplicate.

The test system of a further data set is GDNF. In words: Western blot of GDNF expression in whole testis lysates. Format: in vivo, mouse. The following applies: 5 weeks after busulfan vs PBS. The text has this:
Testes harvested from vehicle or busulfan treated-wild type mice were homogenized in RIPA buffer and protein concentration quantified by the BioRad DC Protein Assay. Twenty-five ug of protein per sample were separated by SDS-PAGE, probed with anti-GDNF rabbit polyclonal antibody (1:500; Santa Cruz, Cat: 13147) or anti-cleaved Caspase 3 rabbit polyclonal antibody (1:1000; Cell Signaling, Cat: 9664) and detected by chemiluminescence (ECL, Amersham). Blots were stripped and re-probed with β-actin as a loading control. See Supplementary material for uncropped blots.
FIG. 1. a. Quantication of Gdnf mRNA in Sertoli cells and TECs, and GDNF levels by ELISA in conditioned media from Sertoli cells or TECs without or with FGF-2 (20 ngml-1) treatment for 3 days. b. Murine GFP+Thy1.2+SSCs were co-cultured with TECs or testicular cells depleted of CD31+ TECs but containing all other cell populations in the testes. After 3 weeks, SSC colonies were absent in CD31-depleted testicular cell co-cultures with Sertoli and PTM cells present, while a signicant number of GFP+ Thy1.2+ SSC colonies were present in co-cultures with TECs alone. c. Immunouorescence staining for CD31 (for ECs) on testis sections from wildtype mice 5 weeks after vehicle or busulfan treatment. […] Quantification of MVD and vessel length is shown on the right, n=3.
In general terms: In western blotting, separated proteins are transferred to a membrane and probed.

Data set [4] has as its system SSCs. In words: Restoration of spermatogenesis after busulfan exposure. The settings on record: mice, no transplantation. Format: in vivo, mouse.

For `CS(=O)(=O)OCCCCOS(C)(=O)=O` [busulfan], the “microvessel density in testes sections” value in the data set on TECs [1] was “significant decrease”. The “time to restoration of spermatogenesis following exposure to busulfan” value in the data set with SSCs [2] is 30-36 weeks. For the same compound, the “TEC apoptosis (cleaved caspase 3)” value in the data set with TECs [3] (72 or 96 hours) is listed as “increased apoptosis”. Also, the “TEC proliferation (BrdU)” value in the data set on TECs [3] (72 hours) is “decreased proliferation”. Also, in the data set with GDNF, the “testis GDNF expression” value is “global decrease”. In addition, the “time required for restoration of murine spermatogenesis post-busulfan treatment” value in the data set with SSCs [4] is reported as 6 months.

The record behind these values is patent publication US20210386792A1, “A METHOD FOR INCREASING POPULATION OF SPERMATOGONIAL STEM CELLS” (priority 2018, published 2021).
